Assay results from patent US5660842A, “Inhibition of helicobacter” (Bristol-Myers Squibb Company, priority 1995, dated 1997).
≈ marks a conversion by molar mass, not a printed value. Where two headings read alike, the source gives them in different places.

Experiments:
Helicobacter pylori [1] = assay: Viability of H. pylori after 1 hour in prototype nutritional compositions containing FFA or MG (Example 3, Table 6); assay type: cell-based, Helicobacter pylori (ATCC 43629); conditions: for Change in viable cell number: 1 hour; for Inhibition in nutritional compositions: levels as high as 20 mM; for Reductions in viability of H. pylori: 10 mM for 1 hour
Helicobacter pylori [2] = assay: Viability of H. pylori after 1 hour with FFA or MG in Brucella broth (plate count, Example 1, Table 1); assay type: cell-based; conditions: for Effect on test strains of H. pylori: up to 5 mM, three strains; for Reduction in number of viable H. pylori cells (CFU/mL): 1 hour, 37° C.; for Reductions in cell numbers: test strains HP-2, HP-4, HP-5, 1 hour incubation
Helicobacter pylori [3] = assay type: cell-based, Helicobacter pylori (HP-2, HP-4, HP-5); conditions: for Frequency of resistance / Resistant variants of H. pylori: concentrations as low as two times the MIC; for Frequency of resistant mutants (number of spontaneous mutants): ~1 × 10^8 CFU; for Frequency of innate resistance compared with MG and FFA: H. pylori strains, Table 7
Helicobacter pylori [4] = assay: Minimal inhibitory concentration (MIC) for H. pylori (Example 5); assay type: cell-based
Helicobacter felis = assay: H. felis infected mouse model (urease activity and histology of gastric tissue); assay type: in vivo, Helicobacter felis in adult mice
Source text: The restricted host range of Helicobacter pylori has hampered the development of a widely accepted animal model of H. pylori infection. […] Other animal models of Helicobacter infection have been described based on bacteria similar to H. pylori that have been found in the gastric mucosa of various animals such as the ferret, cat, and monkey. One such model involves the inoculation of adult mice with Heicobacter felis (Fox, J. G., J. C. Murphy, N. S. Taylor, A. Lee, Z. Kabob, and L. Pappo., Local and systemic immune responses in murine Helicobacter felis active chronic gastritis., Infect. Immun. 1993; 61:2309-2315; Dick-Hegedus, E., and A. Lee. Use of a mouse model to examine anti-Helicobacter pylori agents., Scand. J. Gastroenterol. 1991;26:909-915). Preliminary studies were conducted to evaluate the anti-infective activity of MG and FFA against Helicobacter infection in vivo using the H. felis infected mouse model. […] Two weeks later mice were randomized into treatment groups and maintained on liquid diet alone or the same diet supplemented with C10:0 MG or C12:0 MG at a level of 1,5, or 10 mM. Gastric colonization with H. felis in mice was determined 1 and 3 weeks later by evaluation of urease activity ([…]. Barody, A. Gal, and A. Lee., Campylobacter pyloridis gastritis I: Detection of urease as a marker of bacterial colonization and gastritis. Am. J. Gastroenterol. 1987; 82: 292-296) and histopathological assessment of bacterial infection in gastric tissues.

[5] = Nutrament (Formulation II), 20 mM
[6] = Sustacal (Formulation I), 10 mM
[7] = Sustacal (Formulation I), 20 mM
[8] = Ultracal (Formulation III), 5 mM
[9] = Ultracal (Formulation III), 10 mM
[10] = Ultracal (Formulation III), 20 mM
[11] = Nutrament (Formulation II), 5 mM
[12] = Nutrament (Formulation II), 10 mM
[13] = Helicobacter pylori, Table 7, read-out: MIC

SMILES | Change in viable cell number (Helicobacter pylori [1]; Sustacal (Formulation I), 5 mM) [LOG CFU/mL] | Change in viable cell number (Helicobacter pylori [1]; [6]) [LOG CFU/mL] | Change in viable cell number (Helicobacter pylori [1]; [8]) [LOG CFU/mL] | Change in viable cell number (Helicobacter pylori [1]; [9]) [LOG CFU/mL] | Change in viable cell number (Helicobacter pylori [1]; [10]) [LOG CFU/mL] | Frequency of resistant mutants (number of spontaneous mutants) (Helicobacter pylori [3]; strain 43579, 2 × MIC) | Frequency of resistant mutants (number of spontaneous mutants) (Helicobacter pylori [3]; strain 43579, 5 × MIC) | Frequency of resistant mutants (number of spontaneous mutants) (Helicobacter pylori [3]; strain 43579, 10 × MIC) | Frequency of resistant mutants (number of spontaneous mutants) (Helicobacter pylori [3]; strain 43629, 2 × MIC) | Frequency of resistant mutants (number of spontaneous mutants) (Helicobacter pylori [3]; strain 43629, 5 × MIC) | Frequency of resistant mutants (number of spontaneous mutants) (Helicobacter pylori [3]; strain 43629, 10 × MIC) | Frequency of resistant mutants (number of spontaneous mutants) (Helicobacter pylori [3]; strain 49503, 2 × MIC) | Frequency of resistant mutants (number of spontaneous mutants) (Helicobacter pylori [3]; strain 49503, 5 × MIC) | Frequency of resistant mutants (number of spontaneous mutants) (Helicobacter pylori [3]; strain 49503, 10 × MIC) | Reductions in viability of H. pylori (Helicobacter pylori [1]) [fold] | Change in viable cell number (Helicobacter pylori [1]; [11]) [LOG CFU/mL] | Change in viable cell number (Helicobacter pylori [1]; [12]) [LOG CFU/mL] | Reductions in cell numbers (Helicobacter pylori [2]) | further results
CCCCCCCCCC(=O)O [Capric Acid, capric acid, reference compound] | 0.00 | 0.00 | 0.03 | -0.03 | -0.33 |  |  |  |  |  |  |  |  |  |  |  |  |  | Change in viable cell number (Helicobacter pylori [1]; [5]): -0.08 LOG CFU/mL; Change in viable cell number (Helicobacter pylori [1]; [7]): -0.09 LOG CFU/mL; Inhibition in nutritional compositions (Helicobacter pylori [1]): not inhibitory; Effect on test strains of H. pylori (Helicobacter pylori [2]): None of the test strains of H. pylori were affected
CCCCCCCC(=O)O [Caprylic Acid, caprylic acid, reference compound] | 0.00 | 0.00 | 0.06 | -0.20 | -0.81 |  |  |  |  |  |  |  |  |  |  |  |  |  | Change in viable cell number (Helicobacter pylori [1]; [5]): -0.21 LOG CFU/mL; Change in viable cell number (Helicobacter pylori [1]; [7]): 0.02 LOG CFU/mL; Inhibition in nutritional compositions (Helicobacter pylori [1]): not inhibitory; Effect on test strains of H. pylori (Helicobacter pylori [2]): None of the test strains of H. pylori were affected
CCCCCCCCCC(=O)OCC(O)CO (stereo not drawn) [Monocaprin, monocaprin] | -3.78 | -3.91 | -4.40 | -4.40 |  | < 1 | < 1 | < 1 | < 1 | < 1 | < 1 | < 1 | < 1 | < 1 | ≥ 1000 | -4.00 | -4.14 | ≥ 10,000 fold | Frequency of resistance (Helicobacter pylori [3]): < 1×10^-8; Resistant variants of H. pylori (Helicobacter pylori [3]): no resistant variants of H. pylori were found; MIC (Helicobacter pylori [4]; Table 7): 60.0 µg/mL (≈ 244 µM); MIC (Helicobacter pylori [4]; preliminary studies): approximately 60 mg/L; Reduction in number of viable H. pylori cells (CFU/mL) (Helicobacter pylori [2]; ATCC #43579, 1 mM): > 100,000 fold; Reduction in number of viable H. pylori cells (CFU/mL) (Helicobacter pylori [2]; ATCC #43629, 1 mM): > 60,000 fold; Reduction in number of viable H. pylori cells (CFU/mL) (Helicobacter pylori [2]; ATCC #49503, 1 mM): > 30,000 fold; Histology score (Helicobacter felis; 10 mM in diet, three weeks): remained lower; Numbers of urease positive and histology positive mice (Helicobacter felis; diet, three weeks after initiation of treatment): comparable to the number observed in the infected control group (~80-100%); Number of urease and histology positive mice (Helicobacter felis; liquid diet with MG at 1, 5 or 10 mM, 1 week of treatment): dose-related reductions in the number of urease and histology positive mice; Reduction in H. felis infection (Helicobacter felis; second study, daily intragastric gavage 1.4 or 2.8 mg/day, 1 or 3 weeks): no significant reduction in H. felis infection; Level of infection (histology score) (Helicobacter felis; urease positive mice vs control, diet, 1 week): Lower levels of infection
CCCCCCCC(=O)OCC(O)CO (stereo not drawn) [Monocaprylin, monocaprylin] | 0.37 | -3.44 | 0.00 | -3.64 | -4.46 |  |  |  |  |  |  |  |  |  | ≥ 1000 | -4.23 | -4.23 | ≥ 1000 fold | Reduction in number of viable H. pylori cells (CFU/mL) (Helicobacter pylori [2]; ATCC #43579, 5 mM): > 4,000 fold; Reduction in number of viable H. pylori cells (CFU/mL) (Helicobacter pylori [2]; ATCC #43629, 5 mM): > 3,000 fold; Reduction in number of viable H. pylori cells (CFU/mL) (Helicobacter pylori [2]; ATCC #49503, 5 mM): > 40,000 fold
CCCCCCCCCCCC(=O)OCC(O)CO (stereo not drawn) [Monolaurin, monolaurin] | -3.41 | -3.77 | -3.04 | -4.40 |  | < 1 | < 1 | < 1 | < 1 | < 1 | < 1 | < 1 | < 1 | < 1 | ≥ 1000 | -4.23 | -3.87 | ≥ 10,000 fold | Frequency of resistance (Helicobacter pylori [3]): < 1×10^-8; Resistant variants of H. pylori (Helicobacter pylori [3]): no resistant variants of H. pylori were found; MIC (Helicobacter pylori [4]; Table 7): 15.0 µg/mL (≈ 54.7 µM); MIC (Helicobacter pylori [4]; preliminary studies): ~15 µg/mL (≈ 54.7 µM); Reduction in number of viable H. pylori cells (CFU/mL) (Helicobacter pylori [2]; ATCC #43579, 1 mM): > 100,000 fold; Reduction in number of viable H. pylori cells (CFU/mL) (Helicobacter pylori [2]; ATCC #43629, 1 mM): > 50,000 fold; Reduction in number of viable H. pylori cells (CFU/mL) (Helicobacter pylori [2]; ATCC #49503, 1 mM): > 30,000 fold
Cc1ncc([N+](=O)[O-])n1CCO [metronidazole, reference compound] |  |  |  |  |  |  |  |  | 791 | < 1 | < 1 | > 1000 | 48 | < 1 |  |  |  |  | Frequency of innate resistance compared with MG and FFA (Helicobacter pylori [3]): consistently higher; Frequency of resistant mutants (number of spontaneous mutants) (Helicobacter pylori [3]; strain 43679 (so in the source), 2 × MIC): > 1000; Frequency of resistant mutants (number of spontaneous mutants) (Helicobacter pylori [3]; strain 43679 (so in the source), 5 × MIC): 862; Frequency of resistant mutants (number of spontaneous mutants) (Helicobacter pylori [3]; strain 43679 (so in the source), 10 × MIC): 518; MIC (Helicobacter pylori [4]; [13]): 2 µg/mL (≈ 11.7 µM)
CN(C)C1C(=O)C(C(N)=O)=C(O)C2(O)C(=O)C3=C(O)c4c(O)cccc4C(C)(O)C3CC12 (stereo not drawn) [tetracycline, reference compound] |  |  |  |  |  | TNTC | TNTC | < 1 | > 1000 | 242 | < 1 | 148 | < 1 | < 1 |  |  |  |  | Frequency of innate resistance compared with MG and FFA (Helicobacter pylori [3]): consistently higher; MIC (Helicobacter pylori [4]; [13]): 0.1 µg/mL (≈ 0.225 µM)
